Measured values taken from patent US9023865B2, “Compounds that are ERK inhibitors” (Merck Sharp & Dohme Corp., priority 2011, dated 2015).
Where a name gives a salt, the structure may show the parent alone. Read-outs that look alike come from different tables or passages of the source.

How the values were obtained:
[1] = target: Active Mouse ERK2 (mERK2) (Mus musculus (Mouse), UniProt P63085); experiment: Active Mouse ERK2 (mERK2) Activity Assay (IMAP-FP); type: biochemical
Experimental: Active Mouse ERK2 (mERK2) Activity Assay:
Activated ERK2 activity was determined in an IMAP-FP assay (Molecular Devices). […] Phosphorylation reactions were allowed to proceed for 45 minutes and were immediately quenched by the addition of 60 μL IMAP detection beads (1:1000 dilutions) in IMAP binding buffer (Molecular Devices) with 24 mM NaCl. Plates were read on EnVision reader after 60 minutes binding equilibration using Fluorescence Polarization protocol (Perkin Elmer).

[2] = target: Active Human ERK2 (hERK2) (Homo sapiens (Human), UniProt P28482); experiment: Active Human ERK2 (hERK2) Activity Assay (IMAP-FP); type: biochemical; details: read-out: ERK 2 Human average IC50
How it was run: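 Phosphorylation by activated human ERK2 (0.5 nM) at 30 μM ATP, peptide substrate 900 nM unlabeled with 80 nM labeled, proceeds 60 min. IMAP beads stop the reaction; after 60 min equilibration, product is measured by fluorescence polarization.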

[3] = phosphorylated active mERK2, 30 uM ATP, read-out: ERK 2 MAPK1 Mouse IC50
[4] = read-out: AERK2 IC50 (Active mouse ERK2 Activity Assay)
[5] = phosphorylated active hERK2, 30 μM ATP, average

Active Human ERK2 (hERK2), sequence (P28482 whole entry): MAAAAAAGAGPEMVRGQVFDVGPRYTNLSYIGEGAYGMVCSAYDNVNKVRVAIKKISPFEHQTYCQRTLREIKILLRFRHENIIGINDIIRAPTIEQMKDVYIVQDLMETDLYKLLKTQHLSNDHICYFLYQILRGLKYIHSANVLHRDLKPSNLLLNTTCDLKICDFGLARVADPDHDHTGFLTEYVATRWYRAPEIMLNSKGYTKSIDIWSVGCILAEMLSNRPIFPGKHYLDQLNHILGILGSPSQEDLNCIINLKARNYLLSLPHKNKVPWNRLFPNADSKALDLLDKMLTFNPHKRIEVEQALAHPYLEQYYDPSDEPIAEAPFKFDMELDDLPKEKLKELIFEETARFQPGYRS
Active Mouse ERK2 (mERK2), sequence (P63085 whole entry): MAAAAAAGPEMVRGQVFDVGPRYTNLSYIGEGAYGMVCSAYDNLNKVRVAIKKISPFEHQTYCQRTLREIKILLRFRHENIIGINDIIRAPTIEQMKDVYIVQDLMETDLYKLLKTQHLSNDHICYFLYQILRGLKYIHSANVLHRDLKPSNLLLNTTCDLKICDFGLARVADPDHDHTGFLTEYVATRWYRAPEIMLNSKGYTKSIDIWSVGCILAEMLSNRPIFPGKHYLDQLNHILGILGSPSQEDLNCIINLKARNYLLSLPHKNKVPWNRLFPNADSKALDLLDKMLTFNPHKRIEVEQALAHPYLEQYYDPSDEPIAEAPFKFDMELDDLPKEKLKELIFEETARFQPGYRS

SMILES	IC50 [1, 3] [nM]	IC50 [1, 4] [nM]	IC50 [2, 5] [nM]	IC50 [2] [nM]
Cc1cc(-c2n[nH]c3cc(NC(=O)NC4CCCNC4)ncc23)ccn1 (centres unmarked) [Example 1, 3-({[3-(2-methylpyridin-4-yl)-1H-pyrazolo[4,3-c]pyridin-6-yl]carbamoyl}amino)piperidinium trifluoroacetate]	3.13			
COc1cccc(F)c1CN1CCC[C@@H](NC(=O)Nc2cc3[nH]nc(-c4ccnc(C)c4)c3cn2)C1 [Example 2, 1-[(3R)-1-(2-fluoro-6-methoxybenzyl)-piperidin-3-yl]-3-[3-(2-methylpyridin-4-yl)-1H-pyrazolo[4,3-c]pyridin-6-yl]urea]	0.152	0.1 to 1.2	0.286	
COc1cccc(F)c1CN1CCC[C@H](NC(=O)Nc2cc3[nH]nc(-c4ccnc(C)c4)c3cn2)C1 [Example 3, 1-[(3S)-1-(2-fluoro-6-methoxybenzyl)-piperidin-3-yl]-3-[3-(2-methylpyridin-4-yl)-1H-pyrazolo[4,3-c]pyridin-6-yl]urea]	36.6			
COc1cccc(F)c1CN1CCCC(NC(=O)Nc2cc3[nH]nc(-c4ccnc(C)c4)c3cn2)C1 (centres unmarked) [Example 4, 1-[1-(2-fluoro-6-methoxybenzyl)-piperidin-3-yl]-3-[3-(2-methylpyridin-4-yl)-1H-pyrazolo[4,3-c]pyridin-6-yl]urea]	1.12	0.1 to 1.2		
Cc1cc(-c2n[nH]c3cc(NC(=O)N[C@H](C)c4ccccc4)ncc23)ccn1 [Example 6, 1-[3-(2-methylpyridin-4-yl)-1H-pyrazolo[4,3-c]pyridin-6-yl]-3-[(1R)-1-phenylethyl]urea]	0.152	0.1 to 1.2	0.204	
Cc1cc(-c2n[nH]c3cc(NC(=O)N[C@@H](C)c4ccccc4)ncc23)ccn1 [Example 7, 1-[3-(2-methylpyridin-4-yl)-1H-pyrazolo[4,3-c]pyridin-6-yl]-3-[(1S)-1-phenylethyl]urea]	38.3			
Cc1cc(-c2n[nH]c3cc(NC(=O)NCc4ccc(Cl)c(Cl)c4)ncc23)ccn1 [Example 8, 1-(3,4-dichlorobenzyl)-3-[3-(2-methylpyridin-4-yl)-1H-pyrazolo[4,3-c]pyridin-6-yl]urea]	0.516	0.1 to 1.2		
Cc1cc(-c2n[nH]c3cc(NC(=O)NCc4ccccc4)ncc23)ccn1 [Example 9]	0.222	0.1 to 1.2		0.851
Cc1cc(-c2n[nH]c3cc(NC(=O)NC(CO)c4ccccc4)ncc23)ccn1 (centres unmarked) [Example 10, 1-(2-hydroxy-1-phenylethyl)-3-[3-(2-methylpyridin-4-yl)-1H-pyrazolo[4,3-c]pyridin-6-yl]urea]	0.215	0.1 to 1.2		
Cc1cc(-c2n[nH]c3cc(NC(=O)N[C@@H](C)c4ccc(F)cc4)ncc23)ccn1 [Example 11, 1-[(1S)-1-(4-fluorophenyl)ethyl]-3-[3-(2-methylpyridin-4-yl)-1H-pyrazolo[4,3-c]pyridin-6-yl]urea]	0.152	0.1 to 1.2	0.342	
Cc1cc(-c2n[nH]c3cc(NC(=O)NCc4nnc(C)o4)ncc23)ccn1 [Example 13]	10.2			
Cc1cc(-c2n[nH]c3cc(NC(=O)NCc4cccnc4)ncc23)ccn1 [Example 14, 1-[3-(2-methylpyridin-4-yl)-1H-pyrazolo[4,3-c]pyridin-6-yl]-3-(pyridin-3-ylmethyl)urea]	1.16	0.1 to 1.2		
Cc1cc(-c2n[nH]c3cc(NC(=O)N[C@H](CO)c4ccccc4)ncc23)ccn1 [Example 15, 1-[(1S)-2-hydroxy-1-phenylethyl]-3-[3-(2-methylpyridin-4-yl)-1H-pyrazolo[4,3-c]pyridin-6-yl]urea]		0.1 to 1.2	0.392	
Cc1cc(-c2n[nH]c3cc(NC(=O)N[C@@H](c4ccccc4)C(F)(F)F)ncc23)ccn1 [Example 16, 1-[3-(2-methylpyridin-4-yl)-1H-pyrazolo[4,3-c]pyridin-6-yl]-3-[(1S)-2,2,2-trifluoro-1-phenylethyl]urea]	3.78			
COCCCc1n[nH]c2cc(NC(=O)N[C@H](C)c3ccccc3)ncc12 [Example 21, (R)-1-(3-(3-methoxypropyl)-1H-pyrazolo[4,3-c]pyridin-6-yl)-3-(1-phenylethyl)urea]	2.23		2.53	
CCCc1n[nH]c2cc(NC(=O)N[C@H](C)c3ccccc3)ncc12 [Example 22, (R)-1-(1-phenylethyl)-3-(3-propyl-1H-pyrazolo[4,3-c]pyridin-6-yl)urea]	0.919	0.1 to 1.2	1.61	
Cc1cc(-c2n[nH]c3cc(NC(N)=O)ncc23)ccn1 [Example 23, 1-(3-(2-methylpyridin-4-yl)-1H-pyrazolo[4,3-c]pyridin-6-yl)urea]	2.22		2	

More lines, main results first:

IC50 [1, 3] [nM]	IC50 [1, 4] [nM]	IC50 [2, 5] [nM]	SMILES	IC50 [2] [nM]
0.502	0.1 to 1.2		Cc1cc(-c2n[nH]c3cc(NC(=O)NCCc4ccccc4)ncc23)ccn1 [Example 5, 1-[3-(2-methylpyridin-4-yl)-1H-pyrazolo[4,3-c]pyridin-6-yl]-3-(2-phenylethyl)urea]	
108			Cc1cc(-c2n[nH]c3cc(NC(=O)N[C@@H](CO)c4ccccc4)ncc23)ccn1 [Example 17, 1-[(1R)-2-hydroxy-1-phenylethyl]-3-[3-(2-methylpyridin-4-yl)-1H-pyrazolo[4,3-c]pyridin-6-yl]urea]	
9.46			Cc1cc(-c2n[nH]c3cc(NC(=O)N[C@H](c4ccccc4)C(F)(F)F)ncc23)ccn1 [Example 18, 1-[3-(2-methylpyridin-4-yl)-1H-pyrazolo[4,3-c]pyridin-6-yl]-3-[(1R)-2,2,2-trifluoro-1-phenylethyl]urea]	
0.296	0.1 to 1.2	0.556	Cc1cc(-c2n[nH]c3cc(NC(=O)N[C@H](C)c4ccc(Cl)cc4)ncc23)ccn1 [Example 19, 1-[(1R)-1-(4-chlorophenyl)ethyl]-3-[3-(2-methylpyridin-4-yl)-1H-pyrazolo[4,3-c]pyridin-6-yl]urea]	
0.537	0.1 to 1.2		C[C@@H](NC(=O)Nc1cc2[nH]nc(C3=CCOCC3)c2cn1)c1ccccc1 [Example 20, 1-[3-(3,6-dihydro-2H-pyran-4-yl)-1H-pyrazolo[4,3-c]pyridin-6-yl]-3-[(1R)-1-phenylethyl]urea]	
682		836	C[C@@H](NC(=O)Nc1cc2[nH]ncc2cn1)c1ccc(F)cc1 [Example 24, 1-[(1R)-1-(4-fluorophenyl)ethyl]-3-(1H-pyrazolo[4,3-c]pyridin-6-yl)urea]	
	0.1 to 1.2	1.96	C[C@@H](NC(=O)Nc1cc2[nH]nc(C3CC3)c2cn1)c1ccccc1 [Example 25, 1-(3-cyclopropyl-1H-pyrazolo[4,3-c]pyridin-6-yl)-3-[(1R)-1-phenylethyl]urea]	
0.457	0.1 to 1.2	0.513	Cc1cc(-c2n[nH]c3cc(NC(=O)NCc4ccc(Cl)cc4)ncc23)ccn1 [Example 26, 1-(4-chlorobenzyl)-3-[3-(2-methylpyridin-4-yl)-1H-pyrazolo[4,3-c]pyridin-6-yl]urea]	
